The conditions of data set [1]: 298.2 K; 101.33 kPa; Liquid; Vibrating tube method.
The nature of data set [2]: refractive index (Na D-line) (dimensionless). Conditions: 298.2 K; 101.33 kPa; Liquid; Standard Abbe refractometry.

For orientation: mass density means mass per unit of volume. As usually defined, the refractive index is the speed of light in vacuum divided by its phase velocity in the sample.

± gives the expanded uncertainty stated by the source.

As for `CC(C)OC(C)C` [diisopropyl ether], the mass density in data set [1] is reported as 718.79 ± 0.3 kg/m3. The refractive index in data set [2] is reported as 1.3653 ± 0.0007.

In the case of `CCCO` [propan-1-ol], the mass density in data set [1] was found to be 799.62 ± 0.24 kg/m3. Further, the refractive index in data set [2] stood at 1.3835 ± 0.0007.

For the origin of these results see the NIST ThermoML archive (doi:10.1016/j.fluid.2008.11.014).
